# According to US9416115B2, “Fused heterocyclic compounds as ion channel modulators” (Gilead Sciences, Inc., priority 2013, dated 2016):
# Read-outs that look alike come from different tables or passages of the source.
# Tests used:
# hNav1.1 (SCN1A) = hNav1.1 (SCN1A) (Homo sapiens, UniProt P35498); test: Use-dependent inhibition of the CNS Nav1.1 sodium channel; type: cell-based; conditions: use-dependent block, 25 Hz, pulse 20, read-out: Nav1.1 UDB 25 Hz 10 uM
# Procedure, shortened: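 HEK-293 cells stably expressing WT hNav1.1, automated whole-cell patch clamp at 23-25 °C with CsF-based internal and NaCl external solutions, pH 7.35. Compound applied twice, 200 s equilibration; block measured at pulse 20 of a 25 Hz train (0 mV, 20 ms) from −120 mV, as mean % inhibition versus compound-free.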
# [1] = target: wild-type human cardiac sodium channel, hNav1.5 (Homo sapiens, UniProt Q14524); test: Peak INa screening assay (tonic block and use-dependent block); type: cell-based
# Sequence of wild-type human cardiac sodium channel, hNav1.5 (Q14524 whole entry): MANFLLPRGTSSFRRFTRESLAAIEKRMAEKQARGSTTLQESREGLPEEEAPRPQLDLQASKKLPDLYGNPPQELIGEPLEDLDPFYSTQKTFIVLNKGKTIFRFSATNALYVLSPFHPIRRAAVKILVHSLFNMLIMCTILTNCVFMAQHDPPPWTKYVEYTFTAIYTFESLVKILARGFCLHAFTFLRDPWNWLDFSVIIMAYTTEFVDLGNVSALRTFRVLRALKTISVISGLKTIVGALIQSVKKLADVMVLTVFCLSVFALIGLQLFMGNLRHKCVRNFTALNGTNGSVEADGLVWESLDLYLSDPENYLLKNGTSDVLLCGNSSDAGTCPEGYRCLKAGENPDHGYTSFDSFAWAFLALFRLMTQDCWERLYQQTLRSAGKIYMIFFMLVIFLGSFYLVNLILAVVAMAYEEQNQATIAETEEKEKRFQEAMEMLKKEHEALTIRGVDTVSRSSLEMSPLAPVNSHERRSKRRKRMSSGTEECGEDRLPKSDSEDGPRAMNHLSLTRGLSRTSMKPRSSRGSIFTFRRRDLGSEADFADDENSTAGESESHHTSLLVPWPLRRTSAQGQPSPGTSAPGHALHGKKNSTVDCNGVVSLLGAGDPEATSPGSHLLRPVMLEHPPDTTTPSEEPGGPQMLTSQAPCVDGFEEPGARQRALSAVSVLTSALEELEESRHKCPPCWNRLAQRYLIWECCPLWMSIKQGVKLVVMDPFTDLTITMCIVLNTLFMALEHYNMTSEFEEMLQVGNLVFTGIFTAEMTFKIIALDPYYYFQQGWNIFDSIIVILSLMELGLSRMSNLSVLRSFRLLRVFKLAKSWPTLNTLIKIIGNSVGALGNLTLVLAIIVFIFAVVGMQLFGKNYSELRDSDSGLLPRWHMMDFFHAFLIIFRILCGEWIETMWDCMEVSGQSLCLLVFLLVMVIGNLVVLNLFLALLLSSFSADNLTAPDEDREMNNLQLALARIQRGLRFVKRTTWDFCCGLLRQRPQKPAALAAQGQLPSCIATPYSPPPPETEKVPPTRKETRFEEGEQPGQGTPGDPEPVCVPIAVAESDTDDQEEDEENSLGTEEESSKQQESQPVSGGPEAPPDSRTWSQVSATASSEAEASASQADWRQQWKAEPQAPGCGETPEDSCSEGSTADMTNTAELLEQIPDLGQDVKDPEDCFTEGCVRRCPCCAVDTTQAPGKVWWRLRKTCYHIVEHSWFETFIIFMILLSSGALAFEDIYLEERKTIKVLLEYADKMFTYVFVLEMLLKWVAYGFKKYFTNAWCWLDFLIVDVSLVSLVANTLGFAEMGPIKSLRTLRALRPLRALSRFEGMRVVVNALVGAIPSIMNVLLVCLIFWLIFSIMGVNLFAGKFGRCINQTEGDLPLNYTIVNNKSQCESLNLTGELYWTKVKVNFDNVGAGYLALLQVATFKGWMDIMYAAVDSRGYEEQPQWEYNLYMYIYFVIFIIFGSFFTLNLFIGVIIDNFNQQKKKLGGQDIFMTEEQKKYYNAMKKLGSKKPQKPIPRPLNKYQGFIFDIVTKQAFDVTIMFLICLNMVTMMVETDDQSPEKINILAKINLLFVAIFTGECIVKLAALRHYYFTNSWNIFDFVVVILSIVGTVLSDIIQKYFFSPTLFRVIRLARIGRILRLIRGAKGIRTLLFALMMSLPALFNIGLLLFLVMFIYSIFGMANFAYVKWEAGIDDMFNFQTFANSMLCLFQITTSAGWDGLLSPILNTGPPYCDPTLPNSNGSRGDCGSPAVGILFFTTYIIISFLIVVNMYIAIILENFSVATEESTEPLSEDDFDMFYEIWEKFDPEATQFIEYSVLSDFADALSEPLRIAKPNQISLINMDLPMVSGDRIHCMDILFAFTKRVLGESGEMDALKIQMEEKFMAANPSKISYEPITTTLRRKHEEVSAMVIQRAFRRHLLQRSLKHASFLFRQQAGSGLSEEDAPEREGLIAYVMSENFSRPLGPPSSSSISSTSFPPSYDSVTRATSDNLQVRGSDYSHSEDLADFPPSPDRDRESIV
# Procedure, shortened: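 Whole-cell automated patch clamp, 23-25° C, on hNav1.5 alpha-only HEK293 cells with Na+ lowered to 40 mM by choline. Block measured after two additions of 1 or 3 μM compound and 200 s wait: tonic at 0.1 Hz, use-dependent at 50th pulse (−20 mV, 20 ms, 3 Hz) from −100 mV, relative to drug-free, rundown corrected.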
# [2] = tonic block of Peak INa, 0.1 Hz, holding -100 mV, read-out: Peak TB 3 uM
# [3] = use-dependent block of Peak INa, 3 Hz, pulse 50, read-out: Peak UDB 3 Hz 3 uM
SMILES,inhibition at 10 µM (hNav1.1 (SCN1A)) [%],"inhibition at 3 µM [1, 2] [%]","inhibition at 3 µM [1, 3] [%]"
"CC(C)c1nccn1-c1noc2ccc(-c3ccc(OC(F)(F)F)cc3)cc12 [Example 144, 3-(2-isopropyl-1H-imidazol-1-yl)-5-(4-(trifluoromethoxy)phenyl)benzo[d]isoxazole]",73.2,46.9,< 5
"CCn1ccnc1COc1noc2ccc(-c3ccc(OC(F)(F)F)cc3)cc12 [Example 47, 3-((1-ethyl-1H-imidazol-2-yl)methoxy)-5-(4-(trifluoromethoxy)phenyl)benzo[d]isoxazole]",55.5,21.7,8.5
"FC(F)(F)Oc1ccc(-c2ccc3onc(OCc4nnc(C5CC5)s4)c3c2)cc1 [Example 154, 3-((5-cyclopropyl-1,3,4-thiadiazol-2-yl)methoxy)-5-(4-(trifluoromethoxy)phenyl)benzo[d]isoxazole]",19.8,7.68,< 5
"FC(F)(F)Oc1ccc(-c2ccc3onc(NCc4ncccn4)c3c2)cc1 [Example 126, N-(pyrimidin-2-ylmethyl)-5-(4-(trifluoromethoxy)phenyl)benzo[d]isoxazol-3-amine]",< 5,17.3,< 5
"CCN(CC)C(=O)COc1noc2ccc(-c3ccc(OC(F)(F)F)cc3)cc12 [Example 150, N,N-diethyl-2-((5-(4-(trifluoromethoxy)phenyl)benzo[d]isoxazol-3-yl)oxy)acetamide]",62.8,58.5,9.3
"CN(C)c1noc2ccc(-c3ccc(OC(F)(F)F)cc3)cc12 [Example 133, N,N-dimethyl-5-(4-(trifluoromethoxy)phenyl)benzo[d]isoxazol-3-amine]",22.1,38.8,5.2
"CC(C)[C@@H](COc1noc2ccc(-c3ccc(OC(F)(F)F)cc3)cc12)N1CCCC1=O [Example 120, (S)-1-(3-methyl-1-((5-(4-(trifluoromethoxy)phenyl)benzo[d]isoxazol-3-yl)oxy)butan-2-yl)pyrrolidin-2-one]",68.9,35.2,6.6
"CC(C)(C)OC(=O)N1CCOC[C@H]1COc1noc2ccc(-c3ccc(OC(F)(F)F)cc3)cc12 [Example 111, tert-butyl(S)-3-(((5-(4-(trifluoromethoxy)phenyl)benzo[d]isoxazol-3-yl)oxy)methyl)morpholine-4-carboxylate]",50.4,< 5,7.3
"FC(F)(F)Oc1ccc(-c2ccc3onc(OCCn4cncn4)c3c2)cc1 [Example 58, 3-(2-(1H-1,2,4-triazol-1-yl)ethoxy)-5-(4-(trifluoromethoxy)phenyl)benzo[d]isoxazole]",43.5,22.2,< 5
"CC(=O)N1CCOC[C@H]1COc1noc2ccc(-c3ccc(OC(F)(F)F)cc3)cc12 [Example 115, (S)-1-(3-(((5-(4-(trifluoromethoxy)phenyl)benzo[d]isoxazol-3-yl)oxy)methyl)morpholino)ethan-1-one]",76.4,19.8,18.3
"O=C1CCCN1CCNc1noc2ccc(-c3ccc(OC(F)(F)F)cc3)cc12 [Example 135, 1-(2-((5-(4-(trifluoromethoxy)phenyl)benzo[d]isoxazol-3-yl)amino)ethyl)pyrrolidin-2-one]",87.2,29.3,18
"COc1cc(-c2ccc(OC(F)(F)F)cc2)cc2c(OCc3ncccn3)noc12 [Example 22, 7-methoxy-3-(pyrimidin-2-ylmethoxy)-5-(4-(trifluoromethoxy)phenyl)benzo[d]isoxazole]",28.1,10.2,< 5
"FC(F)(F)Oc1cccc(-c2ccc3onc(OCc4ncccn4)c3c2)c1 [Example 10, 3-(pyrimidin-2-ylmethoxy)-5-(3-(trifluoromethoxy)phenyl)benzo[d]isoxazole]",< 5,16.4,5.7
